Results: US20110144331A1, “Cinnoline Compounds for the Treatment of Anxiety, Cognitive and Mood Disorders” (AstraZeneca AB, priority 2005, published 2011)

Key:
[1] = biological target: T1, human α2β3γ2 GABAA receptor (Homo sapiens, UniProt P18507+P47869); assay: Two-electrode voltage-clamp in Xenopus oocytes, potentiation of GABA EC10 current, GABAA2; assay type: cell-based; settings: percentage potentiation of GABA EC10 current divided by that of diazepam control
T1 construct: expressed in transfected cells; host or cells: Xenopus laevis oocytes injected with capped cRNA (α:β:γ 1:1:1)
Procedure: (§1) GABAA receptors were heterologously expressed in Xenopus oocytes by injecting cRNA corresponding to human α1, α2, α3, α5, β2, β3 and γ2 subunits of the GABAA receptor genes. The specific subunit combinations (subtypes) were as follows: α1β2γ2, α2β3γ2, α3β3γ2, and α5β3γ2. The EC10 of GABA was approximated for each cell. Stability of GABA-mediated (EC10) current was established. Modulatory effect of test compound was determined and compared across subtypes. […] Thus, the assay can characterize modulatory effects and determine subtype selectivity of test compounds on major subtypes of GABAA receptors.
(§2) Surgically removed ovarian lobes were teased out in OR2 solution (82 NaCl, 2.5 KCl, 5 HEPES, 1.5 NaH2PO4, 1 MgCl2, 0.1 EDTA, in mM, pH 7.4). The oocytes were defolliculated by incubation in 25 mL OR2 containing 0.2% collagenase 1A (SIGMA) two times for about 60 minutes on a platform shaker and stored in Leibovitz's L-15 medium. Oocytes were injected the following day in 0.5× Leibovitz's L-15 medium containing […] gentamycin, 10 units/ml penicillin, and […] streptomycin.
(§3) Capped cRNAs from the linearized vectors containing human α1, β2 and γ2 subunits of the GABAA receptor genes were mixed in ratio of 1:1:30. Oocytes were injected with 25-50 nL of mixed RNA with an appx molar ratio for α1, β2, and γ2 as 1:1:10. Oocyte recordings were done 2-10 days after injection. The same methods apply to subtypes derived from α2β2γ2, α3β3γ2, and α5β3γ2, except for 1:1:1 ratio was used for α, β, and γ subunits.
(§4) All measurements were done in a medium containing ND-96 (96 NaCl, 2 KCl, 1.8 CaCl2.2H2O, 1 MgCl2.6H2O, 5 HEPES, in mM, pH 7.5). Two-electrode voltage-clamp recording was carried out using OpusXpress amplifier (Axon Instruments, Foster City, Calif.), which allows simultaneous recording from 8 oocytes. Oocytes were impaled with two electrodes of 1-2 MΩ tip resistance when filled with 3M KCl. Recordings were begun when membrane potential became stable at potentials negative to −50-−60 mV. Membrane potential was held at −60 mV. […] The concentration of GABA corresponded to the EC10 value calculated for each oocyte. The modulator pulses started 30 s before the GABA pulse so as to allow preincubation with the modulator. A set of 3 pulses with just GABA without modulator was given prior to the modulator-containing pulses to define the baseline GABA response. Two oocytes per each experiment were dedicated to observe the effect of diazepam on GABA response to ensure the presence of γ2 subunit in the GABAA pentameric complex, which imparts diazepam sensitivity to the complex.
(§5) Current amplitude (i) was measured from baseline to peak using Clampfit (Axon Inst., Foster City, Calif.). Potentiation was calculated as percent change from the baseline GABA current flux 100×(imod/icontrol)−1) where imod=current mediated by modulator+GABA and icontrol=current mediated by GABA alone. […] Similarly, a value of −50% potentiation means the presence of modulator caused a 50% decrease in the control current. Various other data shown here were fitted and plotted using GraphPad Prism (GraphPad Software, Inc. San Diego, Calif.). The percentage potentiation was converted to relative potentiation by dividing it with percentage potentiation value obtained from the same assay with diazepam as a control.

[2] = biological target: T2, human α1β2γ2 GABAA receptor (Homo sapiens, UniProt P14867+P18507); assay: Two-electrode voltage-clamp in Xenopus oocytes, potentiation of GABA EC10 current, GABAA1; assay type: cell-based; settings: percentage potentiation of GABA EC10 current divided by that of diazepam control
T2 construct: expressed in transfected cells; host or cells: Xenopus laevis oocytes injected with capped cRNA
Procedure: as §1, §2, §3, §4, §5

T2 sequence (P14867 28-456): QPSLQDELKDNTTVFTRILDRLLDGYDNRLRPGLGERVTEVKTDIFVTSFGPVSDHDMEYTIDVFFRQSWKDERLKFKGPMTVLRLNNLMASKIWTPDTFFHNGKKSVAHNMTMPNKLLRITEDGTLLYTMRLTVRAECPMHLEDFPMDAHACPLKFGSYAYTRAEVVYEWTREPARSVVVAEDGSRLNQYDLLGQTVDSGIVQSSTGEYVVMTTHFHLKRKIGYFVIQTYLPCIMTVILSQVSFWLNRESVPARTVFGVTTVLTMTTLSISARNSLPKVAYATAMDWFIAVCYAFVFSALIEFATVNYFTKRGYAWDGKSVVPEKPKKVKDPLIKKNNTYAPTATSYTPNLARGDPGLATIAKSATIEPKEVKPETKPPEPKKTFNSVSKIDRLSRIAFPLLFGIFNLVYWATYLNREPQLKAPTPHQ
T2 sequence (P47870 25-512 partner limits assumed): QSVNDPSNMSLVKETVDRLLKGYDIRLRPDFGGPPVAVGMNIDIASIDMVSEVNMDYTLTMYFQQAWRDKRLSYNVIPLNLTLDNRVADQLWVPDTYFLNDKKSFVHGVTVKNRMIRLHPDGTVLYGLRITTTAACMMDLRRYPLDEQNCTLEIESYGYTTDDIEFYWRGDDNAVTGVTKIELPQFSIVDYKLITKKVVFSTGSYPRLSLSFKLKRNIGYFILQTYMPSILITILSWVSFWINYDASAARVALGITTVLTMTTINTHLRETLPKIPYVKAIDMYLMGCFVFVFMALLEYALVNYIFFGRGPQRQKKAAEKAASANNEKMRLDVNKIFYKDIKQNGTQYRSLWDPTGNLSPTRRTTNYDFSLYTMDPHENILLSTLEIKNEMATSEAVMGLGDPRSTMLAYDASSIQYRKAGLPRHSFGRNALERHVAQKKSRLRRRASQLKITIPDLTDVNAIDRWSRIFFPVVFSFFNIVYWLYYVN
T2 sequence (P18507 40-475): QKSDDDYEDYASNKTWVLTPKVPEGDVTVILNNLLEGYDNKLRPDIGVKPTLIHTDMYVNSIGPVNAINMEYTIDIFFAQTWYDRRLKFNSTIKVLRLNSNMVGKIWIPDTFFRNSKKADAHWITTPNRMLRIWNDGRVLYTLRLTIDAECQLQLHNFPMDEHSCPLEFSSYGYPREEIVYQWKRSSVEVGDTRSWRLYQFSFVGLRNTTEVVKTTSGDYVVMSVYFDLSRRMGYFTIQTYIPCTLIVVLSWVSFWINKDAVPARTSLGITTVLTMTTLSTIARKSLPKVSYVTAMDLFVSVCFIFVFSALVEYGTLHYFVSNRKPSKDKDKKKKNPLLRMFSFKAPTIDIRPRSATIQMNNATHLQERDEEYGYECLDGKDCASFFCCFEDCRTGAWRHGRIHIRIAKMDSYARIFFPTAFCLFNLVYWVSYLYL
T1 sequence (P47869 29-451): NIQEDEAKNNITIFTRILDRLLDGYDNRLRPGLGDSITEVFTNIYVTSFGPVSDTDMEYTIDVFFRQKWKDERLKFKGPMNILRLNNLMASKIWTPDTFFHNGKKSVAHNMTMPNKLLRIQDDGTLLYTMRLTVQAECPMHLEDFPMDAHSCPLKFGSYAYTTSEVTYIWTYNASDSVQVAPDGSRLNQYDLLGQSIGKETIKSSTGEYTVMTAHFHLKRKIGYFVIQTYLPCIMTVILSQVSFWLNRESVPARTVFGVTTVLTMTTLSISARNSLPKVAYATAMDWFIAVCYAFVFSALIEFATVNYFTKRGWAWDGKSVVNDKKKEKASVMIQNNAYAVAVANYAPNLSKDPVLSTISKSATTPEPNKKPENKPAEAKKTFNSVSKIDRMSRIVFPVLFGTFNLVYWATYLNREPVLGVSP
T1 sequence (P18507 40-475): as the sequence (P18507 40-475) above
T1 sequence (P28472 26-473 partner): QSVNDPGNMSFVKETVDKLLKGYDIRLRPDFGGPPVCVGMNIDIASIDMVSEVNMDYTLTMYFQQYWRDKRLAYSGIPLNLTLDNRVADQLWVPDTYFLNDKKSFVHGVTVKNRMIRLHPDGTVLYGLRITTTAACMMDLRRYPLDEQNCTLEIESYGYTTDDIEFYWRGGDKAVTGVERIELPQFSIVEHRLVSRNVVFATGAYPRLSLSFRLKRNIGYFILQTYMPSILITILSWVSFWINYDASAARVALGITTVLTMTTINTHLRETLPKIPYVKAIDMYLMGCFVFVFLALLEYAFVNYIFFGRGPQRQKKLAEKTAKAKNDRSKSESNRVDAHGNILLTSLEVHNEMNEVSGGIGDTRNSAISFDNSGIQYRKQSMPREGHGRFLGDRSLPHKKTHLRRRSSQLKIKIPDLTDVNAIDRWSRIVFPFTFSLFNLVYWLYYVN

Row | SMILES | Relative Potentiation for GABAA2 [1] | Relative Potentiation for GABAA1 [2]
1 | CCCNC(=O)c1nnc2c(-c3ccccc3)c(Cl)ccc2c1N | 0.16 | 0.25
2 | CCCNC(=O)c1nnc2c(-c3ccc(OC)c(F)c3)c(F)ccc2c1N | 0.16 | 0.1
3 | CCCNC(=O)c1nnc2c(-c3ccccc3C(F)(F)F)cccc2c1N | 0.063 | 0.12
4 | CCCNC(=O)c1nnc2c(-c3cc(Cl)ccc3OC)cccc2c1N | 0.4 | 0.38
5 | CCCNC(=O)c1nnc2c(-c3ccc(OC)c(OC)c3OC)c(F)ccc2c1N |  | 0.51
6 | CCCNC(=O)c1nnc2c(-c3ccc(OC)c(F)c3)cccc2c1N | 0.19 | 0.03
7 | CCCNC(=O)c1nnc2c(-c3cnc(OC)nc3OC)c(Cl)ccc2c1N | 0.29 | 0.19
8 | CCCNC(=O)c1nnc2c(-c3cc(OC)ccc3Cl)c(F)ccc2c1N | 0.19 | 0.14
9 | CCCNC(=O)c1nnc2c(-c3ccc(OC)cc3OC)c(Cl)ccc2c1N |  | 0.87
10 | CCCNC(=O)c1nnc2c(-c3cc(C(=O)N4CCC4)ccc3OC)cccc2c1N |  | 0.48
11 | CCCNC(=O)c1nnc2c(-c3cc(F)ccc3C)c(F)ccc2c1N | 0.12 | 0.032
12 | CCCNC(=O)c1nnc2c(-c3cc(OC)cc(OC)c3)c(F)ccc2c1N |  | 0.38
13 | CCCNC(=O)c1nnc2c(-c3ccc(F)cc3OCC)c(F)ccc2c1N |  | 0.27
14 | CCCNC(=O)c1nnc2c(-c3ccccc3)c(OC)ccc2c1N | 0.08 | 0.12
15 | CCCNC(=O)c1nnc2c(-c3cc(C(F)(F)F)ccc3F)cccc2c1N | 0.59 | 0.41
16 | CCCNC(=O)c1nnc2c(-c3cc(C)ccc3C)c(F)ccc2c1N | 0.28 | 0.21
17 | CCCNC(=O)c1nnc2c(-c3ccc(F)cc3OC)cccc2c1N | 0.38 | 0.12
18 | CCNC(=O)c1nnc2c(-c3cnc(OC)nc3OC)cccc2c1N | 0.35 | 0.005
19 | CCCNC(=O)c1nnc2c(-c3ccc(OC)c(C)c3)cccc2c1N | 0.27 | 0.21

Row | SMILES | Relative Potentiation for GABAA2 [1] | Relative Potentiation for GABAA1 [2]
20 | CCNC(=O)c1nnc2c(-c3ccc(OC)cc3OC)cccc2c1N | 0.104 | −0.006
21 | CNC(=O)c1nnc2c(-c3cc(C)ccc3OC)cccc2c1N | 0.43 | 0.19
22 | CCCNC(=O)c1nnc2c(-c3ccc(OC)nc3OC)cccc2c1N | 0.25 | 0.17
23 | COc1ccncc1-c1cccc2c(N)c(C(=O)NC3CC3)nnc12 | 0.337 | 0.077
24 | CCCNC(=O)c1nnc2c(-c3cc(F)ccc3OC)c(F)ccc2c1N | 0.22 | 0.085
25 | CCCNC(=O)c1nnc2c(-c3cc(OC)ccc3F)cccc2c1N | 0.32 | 0.26
26 | CCCNC(=O)c1nnc2c(-c3ccccc3)c(F)ccc2c1N | 0.02 | −0.093
27 | CCCNC(=O)c1nnc2c(-c3ccc4[nH]ccc4c3)cccc2c1N | 0.16 | 0.15
28 | COc1cccc(F)c1-c1cccc2c(N)c(C(=O)NC3CCC3)nnc12 | 0.12 | 0.0017
29 | CCCNC(=O)c1nnc2c(-c3cc(F)ccc3F)c(F)ccc2c1N | 0.098 | 0.013
30 | CCCNC(=O)c1nnc2c(-c3nc(Br)ccc3OC)cccc2c1N |  | 0.34
31 | CCCNC(=O)c1nnc2c(-c3cncc(OC)c3)cccc2c1N | 0.34 | 0.07
32 | CCCNC(=O)c1nnc2c(-c3ccc(C)c(C)c3)cccc2c1N | 0.35 | 0.23
33 | COc1ncccc1-c1cccc2c(N)c(C(=O)NC3CC3)nnc12 | 0.247 | −0.054
34 | CCCNC(=O)c1nnc2c(-c3cc(F)cc(F)c3OC)c(F)ccc2c1N | 0.14 | 0.1
35 | CCCNC(=O)c1nnc2c(-c3cncc(C(=O)N4CCC4)c3)cccc2c1N | −0.033 | −0.11
36 | CCCNC(=O)c1nnc2c(-c3cccc(C)c3C)c(F)ccc2c1N | 0.13 | 0.11
37 | CCNC(=O)c1nnc2c(-c3cnccc3OC)cccc2c1N | 0.28 | −0.02
38 | CCCNC(=O)c1nnc2c(-c3cccc(OC)c3)cccc2c1N | 0.22 | 0.13

Row | SMILES | Relative Potentiation for GABAA2 [1] | Relative Potentiation for GABAA1 [2]
39 | CCCNC(=O)c1nnc2c(-c3cccc(F)c3OC)cccc2c1N | 0.11 | 0.11
40 | CCCNC(=O)c1nnc2c(-c3cc(C(F)(F)F)ccc3Cl)cccc2c1N | 0.59 | 0.47
41 | CCCNC(=O)c1nnc2c(-c3c(Cl)cccc3OC)cccc2c1N [drawing 410] | 0.119 | −0.040
42 | CCCNC(=O)c1nnc2c(-c3cnc(OC)c(Cl)c3)cccc2c1N | 0.04 | 0.086
43 | CCCNC(=O)c1nnc2c(-c3cc(C)nn3C)cccc2c1N | 0.18 | 0.23
44 | CCCNC(=O)c1nnc2c(-c3cc(Cl)ccc3Cl)c(F)ccc2c1N |  | 0.21
45 | CCCNC(=O)c1nnc2c(-c3ccc(C)cc3)cccc2c1N | 0.11 | 0.013
46 | CCCNC(=O)c1nnc2c(-c3cccc(C#N)c3)cccc2c1N | 0.31 | 0.088
47 | CCCNC(=O)c1nnc2c(-c3ccc(N(C)C)cc3)cccc2c1N | 0.18 | 0.07
48 | CCCNC(=O)c1nnc2c(-c3cc(C)ccc3C)c(Cl)ccc2c1N | 0.22 | 0.24
49 | COc1ccc(-c2cccc3c(N)c(C(=O)NC4CCC4)nnc23)c(OC)c1 | 0.243 | 0.091
50 | CCCNC(=O)c1nnc2c(-c3cc(C)ccc3OC)c(Cl)ccc2c1N |  | 0.47
51 | CCCNC(=O)c1nnc2c(-c3cnc(OC)nc3)cccc2c1N | 0.11 | −0.066
52 | CCNC(=O)c1nnc2c(-c3cc(C)ccc3OC)cccc2c1N |  | 0.23
53 | CCCNC(=O)c1nnc2c(-c3cc(Cl)cc(Cl)c3)c(F)ccc2c1N |  | 0.36
54 | CCCNC(=O)c1nnc2c(-c3cc(Cl)ccc3OC)c(F)ccc2c1N |  | 0.25
55 | CCCCNC(=O)c1nnc2c(-c3cc(C)ccc3OC)cccc2c1N |  | 0.32
56 | CCCNC(=O)c1nnc2c(-c3ccc(OC)cc3C(F)(F)F)c(F)ccc2c1N |  | 0.28
57 | CCCNC(=O)c1nnc2c(-c3cc(OC)ccc3OC)c(Cl)ccc2c1N |  | 0.32
